The results in this text go back to ChEMBL document CHEMBL1136383, “New fibrinolytic agents: benzothiophene derivatives as inhibitors of the t-PA-PAI-1 complex formation” (Bioorg Med Chem Lett, 2003).

The assay deals with Plasminogen activator inhibitor 1 (Homo sapiens, UniProt P05121). As to the kind of experiment: Inhibitory activity against plasminogen activator inhibitor 1 (PAI-1) was evaluated by inhibition of tissue plasminogen activator/PAI-1 complex formation in t-PA-induced fibrin clot lysis assay.
Sequence of Plasminogen activator inhibitor 1 (P05121 whole entry): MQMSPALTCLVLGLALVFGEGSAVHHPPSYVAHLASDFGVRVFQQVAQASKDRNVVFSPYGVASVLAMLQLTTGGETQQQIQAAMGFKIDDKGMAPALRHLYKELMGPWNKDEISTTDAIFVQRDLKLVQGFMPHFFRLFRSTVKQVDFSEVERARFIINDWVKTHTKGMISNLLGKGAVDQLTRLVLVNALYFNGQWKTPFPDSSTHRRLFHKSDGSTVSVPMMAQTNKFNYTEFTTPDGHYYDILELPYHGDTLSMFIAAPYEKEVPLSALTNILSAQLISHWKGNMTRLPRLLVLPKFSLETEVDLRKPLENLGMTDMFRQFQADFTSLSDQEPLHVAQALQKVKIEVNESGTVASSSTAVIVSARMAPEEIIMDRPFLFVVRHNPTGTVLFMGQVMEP
Take `O=C(O)/C(=C/c1sc2cc(OCc3ccc(S(=O)(=O)c4ccccc4)cc3)c(OCc3ccc(S(=O)(=O)c4ccccc4)cc3)cc2c1Oc1ccc(Cl)cc1)c1ccncc1`: the midpoint of inhibition, the IC50, lay at 770 nM.

As to `O=C(O)/C(=C/c1sc2cc(OCc3ccccc3-c3ccccc3)c(OCc3ccccc3-c3ccccc3)cc2c1Oc1ccc(Cl)cc1)c1ccncc1`, the IC50 (in general, the midpoint of a concentration-inhibition curve) came to 10800 nM. For `COc1ccc(-c2ccc(COc3cc4sc(/C=C(/C(=O)O)c5ccncc5)c(Oc5ccc(Cl)cc5)c4cc3OCc3ccc(-c4ccc(OC)cc4)cc3)cc2)cc1`, 140 nM corresponded to half-maximal inhibition (IC50). Next, `Cc1cc(Oc2c(/C=C(/C(=O)O)c3ccncc3)sc3cc(OCc4ccc(-c5ccccc5)cc4)c(OCc4ccc(-c5ccccc5)cc4)cc23)cc(C)c1Cl`: 1090 nM; `O=C(O)/C(=C/c1sc2cc(OCc3ccc(-c4ccccc4)cc3)c(OCc3ccc(-c4ccccc4)cc3)cc2c1Oc1ccccc1)c1ccncc1`: 100 nM.

In turn, `O=C(O)/C(=C/c1sc2cc(OCc3ccc(Sc4ccccc4)cc3)c(OCc3ccc(Sc4ccccc4)cc3)cc2c1Oc1ccc(Cl)cc1)c1ccncc1` yielded an IC50 of 39 nM. For `Cc1cc(Oc2c(/C=C(/C(=O)O)c3ccncc3)sc3cc(OCc4ccc(-c5ccccc5)cc4)c(OCc4ccc(-c5ccccc5)cc4)cc23)ccc1Cl`, the IC50 came out at 480 nM.

In turn, `O=C(O)/C(=C/c1sc2cc(OCc3ccc(-c4ccccc4)cc3)c(OCc3ccc(-c4ccccc4)cc3)cc2c1Oc1ccc(Oc2ccncc2)cc1)c1ccncc1` registered a half-inhibitory concentration (IC50) of 10700 nM.

In turn, `O=C(O)/C(=C/c1sc2cc(OCc3cccc(-c4ccccc4)c3)c(OCc3cccc(-c4ccccc4)c3)cc2c1Oc1ccc(Cl)cc1)c1ccncc1` yielded a half-inhibitory concentration (IC50) of 220 nM. `O=C(O)/C(=C/c1sc2cc(OCc3ccc(Cc4ccccc4)cc3)c(OCc3ccc(Cc4ccccc4)cc3)cc2c1Oc1ccc(Cl)cc1)c1ccncc1` yielded an IC50 of 270 nM. With `CN(C)CCSc1ccc(/C=c2\[nH]c(=O)/c(=C/c3ccccc3)[nH]c2=O)s1`, the IC50 turned out to be 106000 nM. The compound `O=C(O)/C(=C/c1sc2cc(OCc3ccc(-c4ccccc4)cc3)c(OCc3ccc(-c4ccccc4)cc3)cc2c1Oc1ccc2ncccc2c1)c1ccncc1` yielded a half-maximal inhibitory concentration (IC50) of 6060 nM. `O=C(O)/C(=C/c1sc2cc(OCc3ccc(-c4ccccc4)cc3)c(OCc3ccc(-c4ccccc4)cc3)cc2c1Oc1cccc(F)c1)c1ccncc1`: half-maximal inhibition (IC50) required 240 nM. Compared with the last compound, the IC50 is about 25-fold lower. For `O=C(O)/C(=C/c1sc2cc(OCc3ccc(-c4ccccc4)cc3)c(OCc3ccc(-c4ccccc4)cc3)cc2c1Oc1ccc(F)c(F)c1)c1ccncc1`, it took 590 nM to reach half-maximal inhibition (IC50). For `O=C(O)/C(=C/c1sc2cc(OCc3ccc(-c4ccccc4)cc3)c(OCc3ccc(-c4ccccc4)cc3)cc2c1Oc1cccnc1)c1ccncc1`, it took 2400 nM to reach half-maximal inhibition (IC50). For the compound `Cc1ccc(Oc2c(/C=C(/C(=O)O)c3ccncc3)sc3cc(OCc4ccc(-c5ccccc5)cc4)c(OCc4ccc(-c5ccccc5)cc4)cc23)cn1`, half-maximal inhibition (IC50) was put at 2480 nM. In turn, `O=C(O)/C(=C/c1sc2cc(OCc3ccc(-c4ccccc4)cc3)c(OCc3ccc(-c4ccccc4)cc3)cc2c1Oc1ccc(Cl)nc1)c1ccncc1` returned a concentration for half-maximal inhibition (IC50) of 2070 nM. The IC50 values of the last two compounds are within 1.5-fold of each other. In the case of `O=C(O)/C(=C/c1sc2cc(OCc3ccc(-c4ccccc4)cc3)c(OCc3ccc(-c4ccccc4)cc3)cc2c1Oc1ccc(Cl)c(F)c1)c1ccncc1`, the IC50 is 2280 nM. On to `O=C(O)/C(=C/c1sc2cc(OCc3ccc(-c4ccccc4)cc3)c(OCc3ccc(-c4ccccc4)cc3)cc2c1Oc1ccc(-n2ccnc2)cc1)c1ccncc1`, for which the half-maximal inhibitory concentration (IC50) turned out to be 2910 nM. Then `O=C(O)/C(=C/c1sc2cc(OCc3ccc(Oc4ccccc4)cc3)c(OCc3ccc(Oc4ccccc4)cc3)cc2c1Oc1ccc(Cl)cc1)c1ccncc1`, with 100 nM. Take `COC(=O)/C(=C/c1sc2cc(OCc3ccccc3)c(OCc3ccccc3)cc2c1Oc1ccc(Cl)cc1)c1ccncc1`: the IC50 was found to be 470 nM. Then `CN(C)CCSc1ccc(/C=c2\[nH]c(=O)/c(=C/c3ccccc3)[nH]c2=O)cc1`, with 51000 nM; and `COc1ccc(/C=c2\[nH]c(=O)/c(=C/c3ccccc3)[nH]c2=O)cc1`, with 59400 nM.
